Laboratory results: patent US20190119282A1, “IMIDAZOPYRIDAZINES USEFUL AS INHIBITORS OF THE PAR-2 SIGNALING PATHWAY” (Vertex Pharmaceuticals Incorporated, priority 2013, published 2019)
Marks after values point to notes of the source that are not given here.

Tests used:
[1] = biological target: T1, PAR2 (HT-29 cells, SLIGKV activation) (Homo sapiens, UniProt P55085); experiment: Ca FLIPR TETRA assay, ANTAGONIST mode, stimulation with 8 μM SLIGKV; assay type: cell-based; conditions: HT-29 cells
T1 construct: host or cells: HT-29 cells
T1 sequence (P55085 26-397): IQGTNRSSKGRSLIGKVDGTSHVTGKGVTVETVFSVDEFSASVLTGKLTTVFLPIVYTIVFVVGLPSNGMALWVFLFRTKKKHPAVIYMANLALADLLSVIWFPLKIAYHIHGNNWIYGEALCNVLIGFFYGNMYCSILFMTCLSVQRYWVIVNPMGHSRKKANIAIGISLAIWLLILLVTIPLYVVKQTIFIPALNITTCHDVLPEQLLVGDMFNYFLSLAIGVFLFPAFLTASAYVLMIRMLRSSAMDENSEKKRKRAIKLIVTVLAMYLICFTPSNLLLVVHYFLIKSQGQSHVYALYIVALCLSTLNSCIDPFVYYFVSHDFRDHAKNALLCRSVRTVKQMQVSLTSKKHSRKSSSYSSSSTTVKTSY
Outline: (§1)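 Inhibition of activator-evoked Ca2+ flux was recorded on FLIPR Tetra in HT-29 cells after 30 min compound exposure at r.t. A prior read checked whether compounds alone triggered Ca2+ release.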

[2] = system: UTP-stimulated Ca2+ response in HT-29 cells; experiment: Ca FLIPR TETRA assay, ANTAGONIST mode, stimulation with 0.6 μM UTP; assay type: cell-based, human; conditions: Homo sapiens, HT-29 cells
Outline: as §1

[3] = biological target: T2, PAR2 (HT-29 cells, trypsin activation) (Homo sapiens, UniProt P55085); experiment: Ca FLIPR TETRA assay, ANTAGONIST mode, stimulation with 3.1 U/mL trypsin; assay type: cell-based; conditions: HT-29 cells
T2 construct: host or cells: HT-29 cells
T2 sequence (P55085 26-397): T1 sequence (P55085 26-397)
Outline: as §1

[4] = In vivo rat pharmacokinetics (intravenous and oral); conditions: plasma; for clearance: intravenous 0.5 to 1 mg/kg, read-out: Clp; for Vd: intravenous, read-out: Vss; for bioavailability: oral by gavage; for half-life: read-out: T ½ (converted)
Procedure: Example 61: Protocol for Testing PAR2 Compounds In Vivo Rat Pharmacokinetics Experiments
Compounds delivered by intravenous route were formulated using a solution formulation consisting of 5% N-methylpyrrolidone 10% Vitamin E-TPGS and 85% water (v/v/) or a solution formulation consisting of 25% N-methylpyrrolidone 35% polyethylene glycol 400 and 40% water (v/v/). Intravenous formulations were administered by a bolus injection (over approximately 10 seconds) using a hypodermic needle attaches to a syringe (tail vein). The dose volume was varied from 1 to 2 mL/kg and the dose was varied from 0.5 to 1 mg/kg. Compounds delivered orally were formulated as a solution formulation consisting of 5% N-methylpyrrolidone 10% Vitamin E-TPGS and 85% water (v/v/) or as fine suspension using a cellulose derivative suspending agent with or without the addition of a wetting agent/surfactant. Milling of large particles was performed as needed to reduce particle size using focused electroacoustic milling, homogenization or low energy media milling. A spray-dried solid dispersion was prepared for key compounds using 1:1 combination with cellulose derivatives. Test compounds were administered orally by gavage using a gavage plastic needle attached to a syringe. The dose volume was varied from 5 to 10 mL/kg and the dose was varied from 1 to 600 mg/kg.
Rats were bled by venipuncture (jugular vein) and the samples were collected into tubes containing K3EDTA. The tubes were placed on wet ice until processed. The samples were centrifuged for approximately 10 minutes (at approximately 4° C.) within approximately 30 minutes of collection to prepare plasma or diluted in citrate buffer (1:3) and stored frozen (approximately −30° C.). Thawed plasma or whole blood samples were extracted by protein precipitation using an organic solvent followed by centrifugation. The supernatants were separated by high-performance liquid chromatography coupled to mass spectrometry detection. A calibration curve was prepared using reference standard compounds spiked into either blank plasma or whole blood matrices and extracted similarly to unknown samples. Pharmacokinetic parameters were calculated using non-compartmental analysis.

[5] = system: Thrombin-stimulated Ca2+ response in HT-29 cells; experiment: Ca FLIPR TETRA assay, ANTAGONIST mode, stimulation with 1 U/mL Thrombin; assay type: cell-based, human; conditions: Homo sapiens, HT-29 cells
Outline: as §1

[6] = system: carrageenan-induced paw edema; experiment: Rat carrageenan-induced paw edema model; assay type: in vivo, Sprague Dawley rats; conditions: given before carrageenan challenge
Procedure: Male Sprague Dawley rats and BALB/c mice were housed in groups in a temperature controlled room and were acclimatized in the animal facility for at least three days prior to use. Experiments were performed during the light phase of the cycle. Animals have food and water ad libitum.
Example 63: Rat Carrageenan-Induced Paw Edema Model
Peripheral inflammation was induced by intra-plantar administration of 100 ul of a 1% w/volume (in saline) carrageenan solution under isoflurane anesthesia. The degree of swelling was assessed using the plethysmometer at 2-3-4-5-6 h after carrageenan injection. Test compound or vehicle (0.5% MC/0.1% SDS) was systemically administered at the indicated doses in a volume of 5 mL/kg either I-3 hour before carrageenan challenge (Table 9) or 2 hours post carrageenan challenge (Table 10).
Data are expressed as the mean % effect. Statistical significance was assessed using t-test for comparison between naive and inflamed rats, and one-way ANOVA followed by post-hoc comparison test for overall drug effectiveness. A difference between groups is considered significant with a p value of <0.05. *, p<0.05; **, p<0.01; ***, p<0.001 vs. vehicle.

[7] = stimulation with 3.1 U/mL trypsin
[8] = stimulation with 1 U/mL Thrombin
[9] = antagonist mode, stimulation with 8 μM SLIGKV
[10] = antagonist mode, stimulation with 0.6 μM UTP
[11] = antagonist mode, stimulation with 3.1 U/mL trypsin
[12] = antagonist mode, stimulation with 1 U/mL Thrombin

Row | Compound | IC50 ([1]; stimulation with 8 μM SLIGKV) | IC50 ([2]; stimulation with 0.6 μM UTP) | IC50 [3, 7] | clearance [4] | Vd [4] | bioavailability [4] | half-life [4] | IC50 [5, 8] | IC50 [1, 9] | IC50 [2, 10] | IC50 [3, 11] | IC50 [5, 12] | further results
1 | Cc1nnc(C(=O)N2CCN(C(=O)c3cn4nc(-c5ccc(F)cc5)cc(C(C)(C)C)c4n3)C(C)(C)C2)o1 [Compound I-288] | – | – | – | – | – | – | – | – | 1.2 nM | > 1000 nM | 1.8 nM | 770 nM | % inhibition of carrageenan induced paw edema ([6]; dose 10 mg/kg): 48*** %
2 | Cc1cc(-c2ccc(F)cc2)nn2cc(C(=O)N3CCN(C(=O)[C@H](O)CC(C)(C)C)[C@@H](C)C3)nc12 [Compound I-9, (R)-1-((S)-4-(6-(4-Fluorophenyl)-8-methylimidazo[1,2-b]pyridazine-2-carbonyl)-2-methylpiperazin-1-yl)-2-hydroxy-4,4-dimethylpentan-1-one] | 9 nM | > 5000 nM | 110 nM | 21.7 mL/min/kg | 1.4 L/kg | 57% | 72 min | > 5000 nM | – | – | – | – | –
3 | CC(C)(C)c1cc(-c2ccc(F)cc2)nn2cc(C(=O)N3CCN(C(=O)c4cn[nH]c4)CC3(C)C)nc12 [Compound I-228] | – | – | – | – | – | – | – | – | 0.6 nM | 590 nM | 0.8 nM | 590 nM | % inhibition of carrageenan induced paw edema ([6]; dose 10 mg/kg): 48** %
4 | CC(C)(O)C(=O)N1CCN(C(=O)c2cn3nc(-c4ccc(F)cc4)cc(C4(C)CC4)c3n2)C(C)(C)C1 [Compound I-32, 1-[4-[6-(4-fluorophenyl)-8-(1-methylcyclopropyl)imidazo[1,2-b]pyridazine-2-carbonyl]-3,3-dimethyl-piperazin-1-yl]-2-hydroxy-2-methyl-propan-1-one] | 17 nM | > 50000 nM | 21 nM | 29.3 mL/min/kg | 2.2 L/kg | 39% | 84 min | > 50000 nM | – | – | – | – | –
5 | CC(C)(C)c1cc(-c2ccc(F)cc2)nn2cc(C(=O)N3CCN(C(=O)[C@H]4CC[C@@](C)(C(=O)O)CC4)CC3(C)C)nc12 [Compound I-563, (1S,4S)-4-(4-(8-(tert-butyl)-6-(4-fluorophenyl)imidazo[1,2-b]pyridazine-2-carbonyl)-3,3-dimethylpiperazine-1-carbonyl)-1-methylcyclohexane-1-carboxylic acid] | – | – | – | 61.7 mL/min/kg | 1.19 L/kg | 15% | 24.8 min | – | – | – | – | – | IC50 ([1]; antagonist mode, 8 μM SLIGKV): 0.3 nM; IC50 ([2]; antagonist mode, 0.6 μM UTP): > 1000 nM; IC50 ([3]; antagonist mode, 3.1 U/mL trypsin): 0.4 nM; IC50 ([5]; antagonist mode, 1 U/mL Thrombin): > 1000 nM
6 | CC(C)(C)c1cc(C2CCC(F)(F)CC2)nn2cc(C(=O)N3CCN(C(=O)[C@H]4C[C@@](C)(O)C4)CC3(C)C)nc12 [Compound I-452, [8-tert-butyl-6-(4,4-difluorocyclohexyl)imidazo[1,2-b]pyridazin-2-yl]-[4-(3-hydroxy-3-methyl-cyclobutanecarbonyl)-2,2-dimethyl-piperazin-1-yl]methanone] | – | – | – | 7.24 mL/min/kg | 1.96 L/kg | 67% | 217 min | – | 3.3 nM | 11600 nM | 6.2 nM | 7850 nM | –
7 | CC(C)(C)c1cc(-c2ccc(F)c(Cl)c2)nn2cc(C(=O)N3CCN(C(=O)c4ncccn4)CC3(C)C)nc12 [Compound I-464] | – | – | – | – | – | – | – | – | 1.2 nM | > 1000 nM | 2.2 nM | > 1000 nM | –

The next lines start with results.

Row | IC50 ([1]; stimulation with 8 μM SLIGKV) | IC50 ([2]; stimulation with 0.6 μM UTP) | IC50 [3, 7] | clearance [4] | Vd [4] | bioavailability [4] | half-life [4] | IC50 [5, 8] | IC50 [1, 9] | IC50 [2, 10] | IC50 [3, 11] | IC50 [5, 12] | Compound | further results
8 | 240 nM | > 50000 nM | 390 nM | 3.6 mL/min/kg | 1.8 L/kg | 71% | 402 min | > 50000 nM | – | – | – | – | CC1(C)C(=O)NCCN1C(=O)c1cn2nc(-c3ccc(F)cc3)cc(C3CCOCC3)c2n1 [Compound I-29, 4-[6-(4-fluorophenyl)-8-tetrahydropyran-4-yl-imidazo[1,2-b]pyridazine-2-carbonyl]-3,3-dimethyl-piperazin-2-one] | –
9 | 59 nM | 42000 nM | 250 nM | – | – | – | – | 35000 nM | – | – | – | – | CC(C)c1cc(-c2ccc(F)cc2)nn2cc(C(=O)N3CCN(C(=O)C4(O)CCOCC4)CC3(C)C)nc12 [Compound I-27, [6-(4-fluorophenyl)-8-isopropyl-imidazo[1,2-b]pyridazin-2-yl]-[4-(4-hydroxytetrahydropyran-4-carbonyl)-2,2-dimethyl-piperazin-1-yl]methanone] | % inhibition of carrageenan induced paw edema ([6]; dose 3 mg/kg): 16%; % inhibition of carrageenan induced paw edema ([6]; dose 6 mg/kg): 25* %; % inhibition of carrageenan induced paw edema ([6]; dose 10 mg/kg): 30%; % inhibition of carrageenan induced paw edema ([6]; dose 20 mg/kg): 33** %; % inhibition of carrageenan induced paw edema ([6]; dose 30 mg/kg): 31* %; % inhibition of carrageenan induced paw edema ([6]; dose 60 mg/kg): 30** %
10 | – | – | – | – | – | – | – | – | 0.6 nM | > 1000 nM | 0.7 nM | > 1000 nM | Cn1nnc(N2CCN(C(=O)c3cn4nc(-c5ccc(F)cc5)cc(C(C)(C)C)c4n3)C(C)(C)C2=O)n1 [Compound I-249] | % inhibition of carrageenan induced paw edema ([6]; dose 10 mg/kg): 49*** %; % inhibition of carrageenan induced paw edema ([6]; dose 30 mg/kg): 26* %
11 | – | – | – | – | – | – | – | – | 1.7 nM | > 1000 nM | 2 nM | > 1000 nM | CC(C)c1cc(-c2ccc(C(F)(F)F)cc2)nn2cc(C(=O)N3CCNC(=O)C3(C)C)nc12 [Compound I-241] | % inhibition of carrageenan induced paw edema ([6]; dose 7 mg/kg): 17** %
12 | – | – | – | 7.15 mL/min/kg | 2.04 L/kg | 69% | 322 min | – | 2 nM | > 1000 nM | 2 nM | > 1000 nM | Cc1cc(C(=O)N2CCN(C(=O)c3cn4nc(-c5ccc(F)cc5)cc(C(C)C)c4n3)C(C)(C)C2)[nH]n1 [Compound I-303] | –
13 | – | – | – | 4.17 mL/min/kg | 1.49 L/kg | 92% | 351 min | – | 2.6 nM | > 1000 nM | 6.7 nM | > 1000 nM | CC(C)c1cc(-c2ccc(C(F)(F)F)c(F)c2)nn2cc(C(=O)N3CCN(C(=O)C(C)(C)O)CC3(C)C)nc12 [Compound I-252] | –
14 | 280 nM | 3000 nM | 1020 nM | – | – | – | – | 3600 nM | – | – | – | – | CC(C)(O)C(=O)N1CCN(C(=O)c2cn3nc(-c4ccc(F)cc4)cc(C4CC4)c3n2)C(C)(C)C1 [Compound I-20, 1-[4-[8-cyclopropyl-6-(4-fluorophenyl)imidazo[1,2-b]pyridazine-2-carbonyl]-3,3-dimethyl-piperazin-1-yl]-2-hydroxy-2-methyl-propan-1-one] | –
15 | – | – | – | – | – | – | – | – | 1.7 nM | > 1000 nM | 2 nM | > 1000 nM | CC(C)c1cc(-c2ccc(C(F)(F)F)cc2)nn2cc(C(=O)N3CCN(C(=O)c4ccn[nH]4)CC3(C)C)nc12 [Compound I-246] | –
